Laboratory results: patent US20120213789A1, “New Molecular Target for Treatment of Cancer” (priority 2001, published 2012)

What was measured:
[1] = system: ML-SV40 Prostat Cell Line; experiment: Dual label UC28 C/AnnexinV flow cytometry after SPB treatment; format: cell-based; details: for Total AnnexV / Total UC28C: 72 hours, ML-SV40, UC28-GAR-CY5/AnnexV-FITC
Experimental: (§1) Cells were grown to 70-80% confluence at 37° C. and 5% CO2 in T-75 tissue culture plastic flasks. SPB stock solution was added to final concentrations of 0.5, 5.0, 10.0, and 25.0 mM in appropriate fresh media to the cell cultures. Cells were incubated at 37° C. and 5% CO2 for 72 hours. Attached cells were then harvested using a solution of 0.05% trypsin and 0.53 mM EDTA (Invitrogen Corp.). Attached cells were then pooled with any the detached cells and washed with PBS pH 7.2. Cell numbers and percent viability were determined using Trypan blue dye exclusion and a hemacytometer. At the time of their use in an experiment the viability was usually about 85% for untreated cells and a range of about 15-70% for treated cells, with the lower viabilities found at higher SPB concentrations (Thompson C, 1995; Cory et al., 1998; van Engeland et al., 1996).
(§2) VO1 Apoptosis Detection Kit contains: (1) Fluorocein-isothiocyante (FITC) conjugated AnnexinV [AnnexinV01] 1 ml (2) Propidium Iodide [Annex-Pi] 2.0 ml (3) 4× Binding Buffer [Annex-B] 20.0 ml. Vendor is CalTag Laboratories, Inc., 1849 Bayshore Boulevard #200 Burlingame, Calif. 94010.
(§3) UC28(C) is 2.14 mg/ml rabbit polyclonal aliquot directed against the inventors' UC28 patented biomarker developed by UCor R&D gene discovery program. The Antibody was produced against a twenty amino acid (AA) synthetic peptide from the predicted AA sequence (AA 21-37) UCor, Inc. 840 Research Parkway Oklahoma City, Okla. 73104.
(§4) Goat Anti-Rabbit CY5 polyclonal Fluorchrome was used as the secondary conjugate for UC28 C rabbit polyclonal antibody and a background control for UC28 C polyclonal. Vendor is Jackson ImmunoResearch Laboratories, Inc. 872 West Baltimore Pike, P.O. Box 9 West Grove, Pa. 19390.
(§5) MsIgG-FITC mouse conjugated-FITC was used for background control for AnnexinV01. Vendor is Becicman Coulter, Inc. Diagnostic Division, 11800 SW 147th Ave. M/S 42-003, P.O. Box 169015, Miami, Floridia 33116-9015.
(§6) A Coulter Elite engineered with a triple laser system was used to analyze all samples. Coulter control beads were used to align lasers for the dual label testing of cell samples. Laser alignment was required for both the Argon (488 nm line) laser and HeNe (633 nm line) laser. These alignments were performed prior to all measurements with the Argon laser (488 nm line) using fluorophores for FITC, RPE, PI and the HeNe laser (633 nm line) for the Cy5 fluorophores being used for the experiments described below. The histographs, voltage settings, gates, color compensation, and pressures were established prior to all sample processing. […]
(§7) UC28 and Annexin V were co-labeled in the three cell lines to assess the induction of UC28 by SPB and its correlation to the induction of apoptosis. […] It may be noted that in previously published experiments, AnnexinV and PI were run in combination with several prostate cancer cell lines, one of which was LNCaP, but not with C4-2B or MLC-SV40. It was determined that they produced similar dose-response kinetics when exposed to 0.5-25 mM of SPB for 72 hours (Ng et al., 1989). That is, as the dose of SPB increased, so did the membrane perturbation events measured by these two methods.

C4-2B Prostate Cell Line = experiment: as above; format: cell-based, human; details: for Total AnnexV / Total UC28C: 72 hours, UC28-GAR-CY5/AnnexV-FITC
Experimental: as §1, §2, §3, §4, §5, §6, §7

[2] = system: MLC-SV40 immortalized normal cells; experiment: Dose-response kinetics of UC28 protein expression by flow cytometry; format: cell-based; details: 0.5 to 25 mM SPB
Experimental: as §1, with “1996). UC28(C) is 2.14 mg/ml rabbit polyclonal aliquot directed against the inventors' UC28 patented biomarker developed by UCor R&D gene discovery program. The Antibody was produced against a […] (AA) synthetic peptide from the predicted AA sequence (AA 21-37) UCor, Inc. 840 Research Parkway Oklahoma City, Okla. 73104. Goat Anti-Rabbit CY5 polyclonal Fluorchrome was used as the secondary conjugate for UC28 C rabbit polyclonal antibody and a background control for UC28 C polyclonal. […]” for “1996).”

[3] = SPB, MLC-SV40, summary of Table 5

O=C([O-])CCCc1ccccc1.[Na+] [SPB, 4-Phenylbutyric Acid, Sodium Salt]
Total AnnexV ([1]; 0.5 mM SPB): 11.4%
Total UC28C ([1]; 0.5 mM SPB): 8.6%
Total AnnexV ([1]; 5.0 mM SPB): 90.2%
Total UC28C ([1]; 5.0 mM SPB): 6.8%
Total AnnexV ([1]; 10 mM SPB): 95.7%
Total UC28C ([1]; 10 mM SPB): 6.8%
Total AnnexV ([1]; 25 mM SPB): 90.7%
Total UC28C ([1]; 25 mM SPB): 9.3%
UC28 up regulation [1, 3]: not
induction of apoptosis [1, 3]: induced
Total AnnexV (C4-2B Prostate Cell Line; 0.5 mM SPB): 41.1%
Total UC28C (C4-2B Prostate Cell Line; 0.5 mM SPB): 29.8%
Total AnnexV (C4-2B Prostate Cell Line; 5.0 mM SPB): 94.0%
Total UC28C (C4-2B Prostate Cell Line; 5.0 mM SPB): 81.8%
Total AnnexV (C4-2B Prostate Cell Line; 10 mM SPB): 80.0%
Total UC28C (C4-2B Prostate Cell Line; 10 mM SPB): 88.0%
Total AnnexV (C4-2B Prostate Cell Line; 25 mM SPB): 82.3%
Total UC28C (C4-2B Prostate Cell Line; 25 mM SPB): 96.5%
UC28 up regulation (C4-2B Prostate Cell Line; SPB, summary of Table 5): up regulated
induction of apoptosis (C4-2B Prostate Cell Line; SPB, summary of Table 5): induced
UC28 membrane protein expression [2]: do not over express
